Data reported in US10118131B2, “Method for preventing microbial growth on a filtration membrane” (KEMIRA OYJ, priority 2011, dated 2018).

Columns and labels:
[1] = Flux of membrane before and after soaking in biocide in synthetic sea water (flat sheet cell); settings: for Initial flux: before soaking
Description: Flux and salt rejection of fresh membrane were measured before and after soaking. The membrane was placed in a flat sheet cell (Alfa Laval LabM20). The operating conditions were, feed pressure 20 bar (for sea water membrane 55 bar), salt (synthetic sea water prepared according to ASTM standard D1141), temperature 25° C. The flux measurement was done for 3 hours.
Soaking was done by mixing biocide with synthetic sea water. The concentration of the added biocide in the synthetic sea water was for PFA 14 and 84 mg/l as active substance, for peracetic acid (PAA) 7, 18 and 35 mg/l as active substance and sodium hypochlorite 20 mg/l as active substance. PFA was added to the synthetic seawater as an equilibrium solution having PFA content 14 weight-%, PAA was added as an equilibrium solution having PAA content 35 weight-% and sodium hypochlorite having concentration of 15 weight-%.
The soaking time was 24 or 144 hours. Performic acid equilibrium solution was made by mixing in 1:1 weight proportion of a solution that contained 50% hydrogen peroxide with a solution that contained 75 weight-% formic acid, 12 weight-% sulfuric acid and 13 weight-% water. After soaking membranes were placed again to the flat sheet cell and salt rejection and flux were measured at the same conditions as before soaking.

[2] = Laboratory scale continuous filtration experiment, PFA added continuously into feed
Description: The impact of PFA on membrane was further studied by a laboratory scale continuous filtration experiment. The type of membrane used in the experiment was brackish water membrane (FilmTec BW30LE).
The continuous filtration has been done in parallel. From a single brackish water tank the water was pumped to two parallel lines with flat sheet cells having similar brackish water membrane. In one line PFA was added continuously into feed and in other line (control) there was no PFA addition. The filtration conditions were as follows: pressure 15 bar, salt (sea salt): 2 g/l, Temperature: 20° C., flow rate: 48 l/h, PFA dosing rate: 6.5 g/h equilibrium solution having PFA active substance concentration 14 weight-% (=19.8 ppm active substance/l of brackish water). Flux and conductivity of permeate and concentrate were monitored and collected over time (for 30 days).

With [Na+].[O-]Cl [Hypochlorite, sodium hypochlorite] the “differences between flux before and after soaking” value ([1]; not told) was over 15%.

In the case of CC(=O)OO [Peracetic acid, peracetic acid], the Flux after soaking ([1]; 7 mg/l active substance in synthetic sea water, soaking 144 hour) is reported as 73, the Flux after soaking ([1]; 18 mg/l active substance in synthetic sea water, soaking 144 hour) is reported as 53 and the Flux after soaking ([1]; 35 mg/l active substance in synthetic sea water, soaking 144 hour) is reported as 44. It also gave an Initial flux ([1]; membrane later soaked at 7 mg/l active substance, 144 hour) of 86, an Initial flux ([1]; membrane later soaked at 18 mg/l active substance, 144 hour) of 91 and an Initial flux ([1]; membrane later soaked at 35 mg/l active substance, 144 hour) of 86.

In the case of O=COO [Performic acid, performic acid], the Initial permeate flux ([2]; 19.8 ppm active substance continuously in feed, 15 bar, sea salt 2 g/l, 20° C.) is reported as 250 g/h, the Final permeate flux ([2]; 19.8 ppm active substance continuously in feed, 30 days, 15 bar, sea salt 2 g/l, 20° C.) is reported as 250 g/h and the “changes in flux over test period” value ([2]; FIG. 1 B, PFA added continuously, 30 days) is reported as “small”. For the same compound, the Flux after soaking ([1]; 14 mg/l active substance in synthetic sea water, soaking 144 hour) was 84, the Flux after soaking ([1]; 84 mg/l active substance in synthetic sea water, soaking 24 hour) was 95 and the Initial flux ([1]; membrane later soaked at 14 mg/l active substance, 144 hour) was 86. The Initial flux ([1]; membrane later soaked at 84 mg/l active substance, 24 hour) was 98 and the “differences between flux before and after soaking” value ([1]; soaked membranes of Table 1) was “less than 15%”.
